Assay results as given in US10858365B2, “Triazolo-pyrimidine compounds and uses thereof” (Dizal (Jiangsu) Pharmaceutical Co., Ltd., priority 2018, dated 2020).

Legend:
hA2a [1] = biological target: T1, hA2a (Homo sapiens (Human), UniProt P29274); assay: Radioligand binding to hA2a membrane ([3H]-CGS21680); details: [3H]-CGS21680, 90 min at 25° C., read-out: Binding Affinity (IC50 nM) hA2a
Experimental: (§1) Binding affinity and specificities of the compounds against different subtype of human adenosine receptors (hA1, hA2A, hA2B and hA3) were characterized with cell membrane chromatography binding analysis.
(§2) The compounds at different concentrations were incubate with hA2a membrane (from PerkinElmer) and [^3H]-CGS21680 for 90 min at 25° C., meanwhile 100 μL 0.5% PEI solution was added into […]-96 GF/B filter plate for 60 min at 4° C., then […]-96 GF/B filter plate was washed twice with 50 ml wash buffer, the membrane mix was transferred into […]-96 GF/B filter plate, and the filter plate was washed 4 times before incubated at 55° C. for 10 min. At last, […] ULTIMA GOLD was added into each well, and CPM was read by TopCount.
(§3) The empty boxes in the tables below indicate data not available.

hA1 [2] = biological target: T2, hA1 (Homo sapiens (Human), UniProt P30542); assay: Radioligand binding to hA1 membrane ([3H]-DPCPX); details: 50 min at 25° C., read-out: Binding Affinity (IC50 nM) hA1
Experimental: as §1
as §2, with “hA1” for “hA2a”, “[^3H]-8-Cyclopentyl-1,3-dipropylxanthine (DPCPX)” for “[^3H]-CGS21680”, “50” for “90”
as §3

hA2b [3] = biological target: T3, hA2b (Homo sapiens (Human), UniProt P29275); assay: Radioligand binding to hA2b membrane ([3H]-DPCPX); details: 60 min at 27° C., read-out: Binding Affinity (IC50 nM) hA2b
Experimental: as §1
(§4) The compounds at different concentrations were incubate with hA2b membrane (from PerkinElmer) and [^3H]-DPCPX for 60 min at 27° C., and the binding reactions were stopped by rapid filtration through 0.5% BSA coated […]-96 GF/C plates using cell harvester. The filter plates were then washed three times with ice cold wash buffer, and dried at 37° C. for 120 min. At last, 50 µL of scintillation cocktail was added into each well, and CPM was read by TopCount.
as §3

hA3 [4] = biological target: T4, hA3 (Homo sapiens (Human), UniProt P0DMS8); assay: Radioligand binding to hA3 membrane (AB-MECA radioligand); details: 60 min at 27° C., read-out: Binding Affinity (IC50 nM) hA3
Experimental: as §1
as §4, with “hA3” for “hA2b”, “[…]” for “[^3H]-DPCPX”, “C.,” for “C., and”, “0.50%” for “0.5%”
as §3

hA2a [5] = biological target: T1, hA2a; assay: cAMP inhibition assay in hA2a/CHO cells; assay type: cell-based; details: adenosine stimulation, read-out: cAMP & FLIPR IC50 (nM) hA2a
Procedure, shortened: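 CHO cells expressing human A2a, human A2b or mouse A2a, 5×10^3 cells/well, pre-incubated with compound 30 min at 37 °C, then stimulated with […] adenosine 30 min at 37 °C. cAMP read after 60 min room-temperature incubation with detection reagent.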

hA2b [6] = biological target: T3, hA2b; assay: cAMP inhibition assay in hA2b/CHO cells; assay type: cell-based; details: adenosine stimulation, read-out: cAMP & FLIPR IC50 (nM) hA2b
Experimental: (§5) hA2a/CHO, hA2b/CHO and mA2a/CHO (Genscript) were plated at 5×10^3 cells/well into 384-well polystyrene plates at the day of experiment. Compounds were pre-incubated with cells for 30 min at 37° C., 5% CO2. Then […] adenosine was added to the cells and incubated for 30 min at 37° C., 5% CO2. Detection reagent (CISBIO) was added and the plates were incubated for 60 min at room temperature. The signal was captured by Envision.

mA2a = mA2a (Mus musculus (Mouse), UniProt Q60613); assay: cAMP inhibition assay in mA2a/CHO cells; assay type: cell-based; details: adenosine stimulation, read-out: cAMP & FLIPR IC50 (nM) mA2a
Experimental: as §5

hA1 [7] = biological target: T2, hA1; assay: FLIPR inhibition assay in hADORA1/CHO (hA1 expressing) cells; assay type: cell-based; details: hADORA1/CHO cells, FLIPR calcium, adenosine stimulation; read-out: cAMP & FLIPR IC50 (nM) hA1
Procedure, shortened: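 CHO cells expressing human A1 were plated at 1×10^4 cells/well the day before, then loaded with FLIPR Calcium 5 dye for 60 min at 37 °C, 5% CO2. Compounds were added at several concentrations for 400 s before stimulation with […] adenosine. The calcium signal was recorded by FLIPR.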

hA3 [8] = biological target: T4, hA3; assay: cAMP & FLIPR inhibition, hA3 over-expressing cell line; assay type: cell-based
Source text: FLIPR™ and cAMP inhibition activities of exemplary compounds in different adenosine receptor over-expressing cell lines are shown in Table 4 below.

T4 sequence (P0DMS8 whole entry): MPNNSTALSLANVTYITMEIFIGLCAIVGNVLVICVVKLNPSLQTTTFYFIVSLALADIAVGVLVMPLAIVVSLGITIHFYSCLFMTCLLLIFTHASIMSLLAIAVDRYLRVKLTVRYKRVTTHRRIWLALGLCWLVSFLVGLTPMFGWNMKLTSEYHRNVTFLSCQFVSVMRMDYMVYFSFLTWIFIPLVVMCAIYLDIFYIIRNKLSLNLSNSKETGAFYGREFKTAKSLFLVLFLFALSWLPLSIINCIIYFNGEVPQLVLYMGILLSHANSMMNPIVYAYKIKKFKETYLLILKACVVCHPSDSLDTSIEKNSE
mA2a, sequence (Q60613 whole entry): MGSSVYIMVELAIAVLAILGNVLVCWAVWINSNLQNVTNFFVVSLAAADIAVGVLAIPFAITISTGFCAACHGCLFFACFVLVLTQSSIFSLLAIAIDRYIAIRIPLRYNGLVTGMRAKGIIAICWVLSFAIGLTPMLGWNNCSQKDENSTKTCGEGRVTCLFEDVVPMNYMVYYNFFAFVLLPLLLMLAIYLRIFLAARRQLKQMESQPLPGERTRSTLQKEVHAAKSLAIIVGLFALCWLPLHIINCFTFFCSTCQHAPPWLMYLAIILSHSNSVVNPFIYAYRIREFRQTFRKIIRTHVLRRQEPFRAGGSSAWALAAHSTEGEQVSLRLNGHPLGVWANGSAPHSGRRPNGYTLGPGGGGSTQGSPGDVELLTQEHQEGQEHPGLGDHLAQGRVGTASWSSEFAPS
T1 sequence (P29274 whole entry): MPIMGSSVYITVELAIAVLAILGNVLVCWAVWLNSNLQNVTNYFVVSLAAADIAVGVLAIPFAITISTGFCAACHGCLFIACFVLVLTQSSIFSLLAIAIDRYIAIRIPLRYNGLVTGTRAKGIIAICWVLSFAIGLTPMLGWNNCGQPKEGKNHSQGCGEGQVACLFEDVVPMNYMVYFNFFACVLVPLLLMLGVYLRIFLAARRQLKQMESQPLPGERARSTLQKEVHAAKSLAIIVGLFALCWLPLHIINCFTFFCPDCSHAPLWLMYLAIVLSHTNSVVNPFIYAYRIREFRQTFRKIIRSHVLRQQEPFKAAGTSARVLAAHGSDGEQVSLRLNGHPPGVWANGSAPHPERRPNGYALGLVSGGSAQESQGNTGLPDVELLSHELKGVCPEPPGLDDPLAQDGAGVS
T3 sequence (P29275 whole entry): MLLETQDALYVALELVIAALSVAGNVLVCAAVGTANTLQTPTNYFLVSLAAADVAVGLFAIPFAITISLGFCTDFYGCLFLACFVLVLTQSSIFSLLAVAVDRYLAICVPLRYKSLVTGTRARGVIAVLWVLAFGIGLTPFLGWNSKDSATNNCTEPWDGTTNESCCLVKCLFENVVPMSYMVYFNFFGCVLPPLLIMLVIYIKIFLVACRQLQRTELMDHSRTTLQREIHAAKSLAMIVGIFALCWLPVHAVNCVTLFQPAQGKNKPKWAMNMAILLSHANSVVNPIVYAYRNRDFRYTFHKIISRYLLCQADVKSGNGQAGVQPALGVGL
T2 sequence (P30542 whole entry): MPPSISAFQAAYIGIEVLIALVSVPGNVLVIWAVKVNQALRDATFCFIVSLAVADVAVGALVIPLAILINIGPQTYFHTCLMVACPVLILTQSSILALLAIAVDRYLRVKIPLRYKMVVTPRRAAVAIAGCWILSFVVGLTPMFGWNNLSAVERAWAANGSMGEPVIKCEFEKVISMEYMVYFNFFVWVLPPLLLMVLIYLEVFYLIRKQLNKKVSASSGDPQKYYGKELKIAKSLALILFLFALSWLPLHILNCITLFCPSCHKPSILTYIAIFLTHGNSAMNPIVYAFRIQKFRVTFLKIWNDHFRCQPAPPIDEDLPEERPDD

Compound | IC50 (hA2a [1]) [nM] | IC50 (hA1 [2]) [nM] | IC50 (hA2b [3]) [nM] | IC50 (hA3 [4]) [nM] | IC50 (hA2a [5]) [nM] | IC50 (hA2b [6]) [nM] | IC50 (mA2a) [nM] | IC50 (hA1 [7]) [nM] | IC50 (hA3 [8]) [nM]
CCn1cc(-c2c(-c3ccc(F)cc3)nc(N)n3nc(Cc4ncccc4F)nc23)ccc1=O [Example 34, 5-(5-amino-7-(4-fluorophenyl)-2-((3-fluoropyridin-2-yl)methyl)-[1,2,4]triazolo[1,5-c]pyrimidin-8-yl)-1-ethylpyridin-2(1H)-one] | 2.8 | 0.8 | 0.4 | 10000 | 2.1 | 58 | 3.4 | 12 | –
Cn1cc(-c2c(-c3ccc(F)cc3)nc(N)n3nc(Cc4ncccc4OC(F)F)nc23)ccc1=O [Example 20, 5-(5-amino-2-[[3-(difluoromethoxy)pyridin-2-yl]methyl]-7-(4-fluorophenyl)-[1,2,4]triazolo[1,5-c]pyrimidin-8-yl)-1-methyl-1,2-dihydropyridin-2-one] | 2.8 | 4 | 8.7 | 1070 | 3.5 | 84 | 4.9 | 34 | > 10000
CC(C)n1cc(-c2c(-c3ccc(F)cc3)nc(N)n3nc(Cc4ncccc4F)nc23)ccc1=O [Example 55, 5-(5-amino-7-(4-fluorophenyl)-2-((3-fluoropyridin-2-yl)methyl)-[1,2,4]triazolo[1,5-c]pyrimidin-8-yl)-1-isopropylpyridin-2(1H)-one] | 4 | 0.1 | 2.8 | 7290 | 0.7 | 101 | 0.8 | 13 | –
Cc1cc(-c2c(-c3ccc(F)cc3)nc(N)n3nc(Cc4ncccc4F)nc23)cc(Cl)n1 [Example 18, 8-(2-chloro-6-methylpyridin-4-yl)-7-(4-fluorophenyl)-2-((3-fluoropyridin-2-yl)methyl)-[l,2,4]triazolo[1,5-c]pyrimidin-5-amine] | – | – | – | – | 1.2 | 511 | 9.6 | 49 | > 10000
Nc1nc(-c2ccc(F)cc2)c(-c2ccnnc2)c2nc(Cc3c(F)cccc3F)nn12 [Example 6, 2-(2,6-difluorobenzyl)-7-(4-fluorophenyl)-8-(pyridazin-4-yl)-[1,2,4]triazolo[1,5-c]pyrimidin-5-amine] | – | – | – | – | 63 | 17 | 182 | 21 | > 10000
Cn1cc(-c2c(-c3ccc(F)cc3)nc(N)n3nc(Cc4ncccc4F)nc23)ccc1=O [Example 1, 5-(5-amino-7-(4-fluorophenyl)-2-((3-fluoropyridin-2-yl)methyl)-[1,2,4]triazolo[1,5-c]pyrimidin-8-yl)-1-methylpyridin-2(1H)-one] | 2.3 | 1.1 | 2.3 | 2870 | 4.7 | 117 | 10 | 8.5 | > 10000
Cc1cc(-c2c(-c3ccc(F)cc3)nc(N)n3nc(C(C)c4c(F)cccc4F)nc23)ccn1 (stereo not drawn) [Example 12, 2-[1-(2,6-difluorophenyl)ethyl]-7-(4-fluorophenyl)-8-(2-methylpyridin-4-yl)-[1,2,4]triazolo[1,5-c]pyrimidin-5-amine] | – | – | – | – | 46 | 5000 | 316 | 214 | > 10000
Cc1cc(-c2c(-c3ccc(F)cc3)nc(N)n3nc(Cc4c(F)cccc4F)nc23)c(C)cn1 [Example 13, 2-[(2,6-difluorophenyl)methyl]-8-(2,5-dimethylpyridin-4-yl)-7-(4-fluorophenyl)-[1,2,4]triazolo[1,5-c]pyrimidin-5-amine] | – | – | – | – | 11 | 81 | 56 | 153 | > 10000
CN(C)c1cc(-c2c(-c3ccc(F)cc3)nc(N)n3nc(Cc4c(F)cccc4F)nc23)ccn1 [Example 10, 2-(2,6-difluorobenzyl)-8-(2-(dimethylamino)pyridin-4-yl)-7-(4-fluorophenyl)-[l,2,4]triazolo [l,5-c]pyrmidin-5-amine] | 0.9 | 2.3 | 0.1 | 4770 | 0.2 | 4.4 | 0.4 | 42 | > 10000
Cn1cc(-c2c(-c3ccc(F)cc3)nc(N)n3nc(Cc4c(F)cccc4F)nc23)ccc1=O [Example 9, 5-(5-amino-2-(2,6-difluorobenzyl)-7-(4-fluorophenyl)-[1,2,4]triazolo[1,5-c]pyrimidin-8-yl)-l-methylpyridin-2(1H)-one] | 2.1 | 0.2 | – | – | 0.6 | 56 | 0.8 | 20 | > 10000
Cn1cc(-c2c(-c3ncco3)nc(N)n3nc(Cc4ncccc4F)nc23)ccc1=O [Example 21, 5-(5-amino-2-((3-fluoropyridin-2-yl)methyl)-7-(oxazol-2-yl)-[1,2,4]triazolo[1,5-c]pyrimidin-8-yl)-1-methylpyridin-2(1H)-one] | 20 | 43 | – | – | 36 | 270 | 41 | 113 | > 10000
Cc1cc(-c2c(-c3ccc(F)cc3)nc(N)n3nc(Cc4nccs4)nc23)ccn1 [Example 11, 7-(4-fluorophenyl)-8-(2-methylpyridin-4-yl)-2-(thiazol-2-ylmethyl)-[1,2,4]triazolo[1,5-c]pyrimidin-5-amine] | – | – | – | – | 34 | 219 | 78 | 9.7 | > 10000
Cc1cc(-c2c(-c3ccc(F)cc3)nc(N)n3nc(Cc4cscn4)nc23)ccn1 [Example 7, 7-(4-fluorophenyl)-8-(2-methylpyridin-4-yl)-2-[(1,3-thiazol-4-yl)methyl]-[1,2,4]triazolo[1,5-c]pyrimidin-5-amine] | – | – | – | – | 102 | 1600 | 209 | 23 | > 10000
